Values of other authors, collected in US20090263333A1, “Pharmaceutical compounds and compositions” (Cipla Limited, priority 2004, published 2009).

Conditions: dose comparison with racemic salbutamol

CC(C)(C)NC[C@H](O)c1ccc(O)c(CO)c1 [Levosalbutamol, levosalbutamol]
efficacy relative to racemic salbutamol: comparable efficacy at nearly one-fourth the dose of racemic salbutamol
